Assay results: patent publication US7074770B1, “Method of DNA vaccination” (SmithKline Beecham Corporation, priority 1998, dated 2006)
Entries after “also recorded” stand apart in the source; their conditions may differ. Where two headings read alike, the source gives them in different places.

How the values were obtained:
[1] = system: splenocytes re-stimulated with NP peptide; assay type: in vivo, C57BL/6 mice; conditions: pVAC1.PR gene gun
[2] = system: EL4 cells pulsed with H-2 Db-restricted NP peptide; test: Lytic CTL response after gene gun NP DNA immunisation (europium release); assay type: in vivo, C57Bl/6 mice; conditions: gene gun NP plasmid 10 ng; tucaresol s.c. 1 mg or oral 15 mg/kg x5 days; FIG. 9
Experimental: C57B1/6 mice were immunised with plasmid DNA encoding the influenza virus nucleoprotein with or without tucaresol given subcutaneously (FIG. 9a) or orally (FIG. 9b). Splenocytes were restimulated in-vitro with A/PR8/34 virus. Standard europium release techniques were used to determine specific lysis of MHC matched target cells pulsed with H-2 D^b-restricted NP peptide.
C57BI/6 mice were immunised with plasmid DNA (10 ng) encoding the influenza virus nucleoprotein (NP) with and without tucaresol given sub-cutaneously (sc). Mice were killed 14 days post-immunisation and restimulated in-vitro (5 days) with irradiated splenocytes pulsed with virus (A/PR8/34). Standard europium release techniques were used to determine specific lysis of MHC-matched target cells (EL4 cells) pulsed with H-2 D^b-restricted NP peptide. Non-specific lysis was less than 15% for all controls. Tucaresol was given subcutaneously (1 mg) at the site of intrepidermal gene-gun immunisation.
C57B1/6 mice were immunised with plasmid DNA (10 ng) encoding the influenza virus nucleoprotein (NP) with and without tucaresol given orally. Mice were killed 14 days post-immunisation and restimulated in-vitro (5 days) with irradiated splenocytes pulsed with virus (A/PR8/34). Standard europium release techniques were used to determine specific lysis of EL4 cells pulsed with H-2D^b-restricted NP peptide. […]

[3] = system: mycobacterial hsp65 (M.hsp65); assay type: in vivo, mice
[4] = system: S6C-E4 tumour cells; test: Tumour outgrowth inhibition in vivo after EBNA-4 plasmid immunisation; set-up: species or system ACA mice; conditions: i.m. 40 μg E4 x3, tucaresol 200 μg s.c. days 1-4; challenge with S6C-E4 s.c.; FIG. 7
Experimental: Groups of ACA mice were immunised three times with p3, E4 or E4,T, and were subsequently challenged with […] S6C tumour cells. Mice were sacrificed when tumour diameter reached 20 mm.
Epstein Barr virus has been implicated in some cancers. We analysed the effect of tucaresol on tumour outgrowth inhibition in vivo as a result of pDNA vaccination with a plasmid expressing EBNA-4 (FIG. 7). Mice were immunised by intramuscular injection with 40 μg of either control mock plasmid pCDNA3 (P3), plasmid expressing EBNA-4 (E4) or plasmid expressing EBNA-4 followed 1, 2, 3 and 4 days later with administration of 200 μg of tucaresol s.c.—i.e. 800 μg total tucaresol per mouse (E4T). This immunisation schedule was repeated 1 month and 2 months after the initial immunisation. Two weeks after the last immunisation mice were challenged with […] S6C-E4 tumour cells s.c. Mice were sacrificed when the tumour reached a 20 mm diameter.

[5] = system: CD4 Th-cells; conditions: previously reported (22); cited from earlier work
[6] = system: Jk-A2/kb target cells pulsed with M.hsp65 peptide; assay type: in vivo, HLA A2 transgenic mice
[7] = system: lymph node T cells (response to ovalbumin peptide); test: T-cell priming after gene gun DNA immunisation (pVAC1.Ova) with conventional adjuvants; assay type: in vivo, mice; conditions: gene gun pVAC1.Ova with or without adjuvants given s.c.; 3 days later
Description: Proliferation of lymph node T cells in response to pDNA or DNA encoding ovalbumin (PVAC1.Ova) in isolation and in combination with adjuvants LPS, CFA, GM-CSF and Heat-Killed Listeria monocytogenes (HKLM).
Lymphoid cells from TCR-transgenic mice, expressing a receptor specific for an ovalbumin antigen were transferred into normal syngeneic mice. These mice were then immunised subcutaneously (by means of gene gun) with plasmid DNA (pVAC1) or with plasmid DNA construct encoding ovalbumin (pVAC1.Ova) with or without adjuvants given subcutaneously. Three days later, regional lymph node cells were removed and their proliferative response to ovalbumin peptide was measured by means of incorporation of tritiated thymidine into DNA. This provides a measure of the degree of specific T-cell priming that occurred in vivo in response to immunisation. […] However, in contrast to the conventional peptide immunisation, none of the adjuvants were able to enhance this response to DNA immunisation.

Molecule: O=Cc1c(O)cccc1OCc1ccc(C(=O)O)cc1 [tucaresol, 4-(2-formyl-3-hydroxyphenoxymethyl)benzoic acid]
- CTL cytokine response (IFNγ positive cells per 10e6 splenocytes) ([1]; tucaresol oral gavage 15 mg/kg daily for 5 days): doubling of the response
- CTL cytokine response (IFNγ positive cells per 10e6 splenocytes) ([1]; tucaresol s.c. 2×1 mg at site of DNA vaccination): small but significant increase
- lytic CTL response (specific lysis) [2]: Enhances
- IgG2a anti-M.hsp65 antibody response (Th1 associated) ([3]; FIG. 3b): significantly (P=0.003) increased; also recorded: strongly enhanced
- IgG1 anti-M.hsp65 antibody response (Th2 associated) ([3]; compared to p3 immunised mice, FIG. 3c): did also induce
- specific antibody response with control plasmid ([3]; control plasmid p3 and tucaresol (p3, T)): no increase in the specific antibody response
- anti-M.hsp65 antibody (IgG) titres ([3]; i.m. 20 μg p3M.65, tucaresol 1 mg s.c. simultaneously or cytokine plasmids equimolar, FIG. 3a): markedly increased; also recorded: comparable to the effect of the GM-CSF plasmid
- tumour outgrowth inhibition [4]: significantly enhances; also recorded: markedly enhanced
- CD4 Th-cell response [5]: enhanced CD4 Th-cell response, selectively favouring a Th 1-type profile over Th 2
- CTL activity against target cells pulsed with the cognate M.hsp65 epitope ([6]; immunised twice, splenocytes stimulated with peptide, FIG. 6): high CTL activity; also recorded: markedly enhanced
- lytic activity against Jk-A2/kb cells unpulsed or pulsed with control influenza peptide ([6]; mouse, in vivo): much lower

B1: GM-CSF: GM-CSF given as adjuvant with DNA immunisation (protein, UniProt P01587 18-141, looked up)
Granulocyte-macrophage …: APTRSPITVTRPWKHVEAIKEALNLLDDMPVTLNEEVEVVSNEFSFKKLTCVQTRLKIFEQGLRGNFTKLKGALNMTASYYQTYCPPTPETDCETQVTTYADFIDSLKTFLTDIPFECKKPGQK
- T-cell priming in response to DNA immunisation [7]: failed to enhance the response
